Assay results reported in the supplement of paper PMC10307832.

Legend:
Assay in all cases: relative viability (nuclei count vs DMSO), 5 days (fraction); higher = more cells survive
LCLC-103H = test system: LCLC-103H
In short: (§1)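 Relative viability divides the nuclei count in treated wells by that in vehicle wells. Lung cancer cell lines were seeded in 1536-well plates, dosed by pin tool the next day, and fixed and stained after 5 days in one step with final 0.05% Triton X-100, 1% formaldehyde and 1 ug/ml Hoechst. Dosing was a single drug or a fixed anchor-drug dose plus five library-drug doses (not always all listed) in √10 steps, and values are medians of duplicate plates imaged at 4×.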

LXF-289 = test system: LXF-289
In short: as §1

NCI-H1355 = test system: NCI-H1355
In short: as §1

NCI-H1651 = test system: NCI-H1651
In short: as §1

NCI-H1755 = test system: NCI-H1755
In short: as §1

NCI-H1792 = test system: NCI-H1792
In short: as §1

NCI-H1915 = test system: NCI-H1915
In short: as §1

NCI-H2347 = test system: NCI-H2347
In short: as §1

NCI-H3122 = test system: NCI-H3122
In short: as §1

NCI-H322M = test system: NCI-H322M
In short: as §1

NCI-H441 = test system: NCI-H441
In short: as §1

NCI-H460 = test system: NCI-H460
In short: as §1

NCI-H520 = test system: NCI-H520
In short: as §1

NCI-H522 = test system: NCI-H522
In short: as §1

NCI-H661 = test system: NCI-H661
In short: as §1

NCI-H727 = test system: NCI-H727
In short: as §1

PC-14 = test system: PC-14
In short: as §1

RERF-LC-KJ = test system: RERF-LC-KJ
In short: as §1

SK-MES-1 = test system: SK-MES-1
In short: as §1

SW 900 = test system: SW 900
In short: as §1

SMILES: Nc1ccn([C@@H]2O[C@H](CO)[C@@H](O)[C@@H]2O)c(=O)n1 [Cytarabine] + CC(=O)c1c(C)c2cnc(Nc3ccc(N4CCNCC4)cn3)nc2n(C2CCCC2)c1=O [Palbociclib] (partner 0.5 µM)
- relative viability (LCLC-103H; first compound 0.005 µM): 0.488
- relative viability (LCLC-103H; first compound 0.01581 µM): 0.429
- relative viability (LCLC-103H; first compound 0.05 µM): 0.498
- relative viability (LCLC-103H; first compound 0.1581 µM): 0.439
- relative viability (LCLC-103H; first compound 0.5 µM): 0.492
- relative viability (LXF-289; first compound 0.005 µM): 0.49
- relative viability (LXF-289; first compound 0.01581 µM): 0.563
- relative viability (LXF-289; first compound 0.05 µM): 0.511
- relative viability (LXF-289; first compound 0.1581 µM): 0.296
- relative viability (LXF-289; first compound 0.5 µM): 0.287
- relative viability (NCI-H1355; first compound 0.005 µM): 0.595
- relative viability (NCI-H1355; first compound 0.01581 µM): 0.325
- relative viability (NCI-H1355; first compound 0.05 µM): 0.396
- relative viability (NCI-H1355; first compound 0.1581 µM): 0.28
- relative viability (NCI-H1355; first compound 0.5 µM): 0.232
- relative viability (NCI-H1651; first compound 0.005 µM): 0.508
- relative viability (NCI-H1651; first compound 0.01581 µM): 0.514
- relative viability (NCI-H1651; first compound 0.05 µM): 0.551
- relative viability (NCI-H1651; first compound 0.1581 µM): 0.374
- relative viability (NCI-H1651; first compound 0.5 µM): 0.277
- relative viability (NCI-H1755; first compound 0.005 µM): 0.428
- relative viability (NCI-H1755; first compound 0.01581 µM): 0.422
- relative viability (NCI-H1755; first compound 0.05 µM): 0.434
- relative viability (NCI-H1755; first compound 0.1581 µM): 0.377
- relative viability (NCI-H1755; first compound 0.5 µM): 0.414
- relative viability (NCI-H1792; first compound 0.005 µM): 0.853
- relative viability (NCI-H1792; first compound 0.01581 µM): 0.655
- relative viability (NCI-H1792; first compound 0.05 µM): 0.618
- relative viability (NCI-H1792; first compound 0.1581 µM): 0.508
- relative viability (NCI-H1792; first compound 0.5 µM): 0.468
- relative viability (NCI-H1915; first compound 0.005 µM): 0.532
- relative viability (NCI-H1915; first compound 0.01581 µM): 0.47
- relative viability (NCI-H1915; first compound 0.05 µM): 0.37
- relative viability (NCI-H1915; first compound 0.1581 µM): 0.265
- relative viability (NCI-H1915; first compound 0.5 µM): 0.2
- relative viability (NCI-H2347; first compound 0.005 µM): 0.416
- relative viability (NCI-H2347; first compound 0.01581 µM): 0.433
- relative viability (NCI-H2347; first compound 0.05 µM): 0.413
- relative viability (NCI-H2347; first compound 0.1581 µM): 0.386
- relative viability (NCI-H2347; first compound 0.5 µM): 0.407
- relative viability (NCI-H3122; first compound 0.005 µM): 0.188
- relative viability (NCI-H3122; first compound 0.01581 µM): 0.389
- relative viability (NCI-H3122; first compound 0.05 µM): 0.122
- relative viability (NCI-H3122; first compound 0.1581 µM): 0.126
- relative viability (NCI-H3122; first compound 0.5 µM): 0.113
- relative viability (NCI-H322M; first compound 0.005 µM): 0.414
- relative viability (NCI-H322M; first compound 0.01581 µM): 0.492
- relative viability (NCI-H322M; first compound 0.05 µM): 0.42
- relative viability (NCI-H322M; first compound 0.1581 µM): 0.385
- relative viability (NCI-H322M; first compound 0.5 µM): 0.383
- relative viability (NCI-H441; first compound 0.005 µM): 0.198
- relative viability (NCI-H441; first compound 0.01581 µM): 0.197
- relative viability (NCI-H441; first compound 0.05 µM): 0.168
- relative viability (NCI-H441; first compound 0.1581 µM): 0.139
- relative viability (NCI-H441; first compound 0.5 µM): 0.17
- relative viability (NCI-H460; first compound 0.005 µM): 0.156
- relative viability (NCI-H460; first compound 0.01581 µM): 0.0617
- relative viability (NCI-H460; first compound 0.05 µM): 0.0499
- relative viability (NCI-H460; first compound 0.1581 µM): 0.0475
- relative viability (NCI-H460; first compound 0.5 µM): 0.044
- relative viability (NCI-H520; first compound 0.005 µM): 0.234
- relative viability (NCI-H520; first compound 0.01581 µM): 0.223
- relative viability (NCI-H520; first compound 0.05 µM): 0.199
- relative viability (NCI-H520; first compound 0.1581 µM): 0.177
- relative viability (NCI-H520; first compound 0.5 µM): 0.201
- relative viability (NCI-H522; first compound 0.005 µM): 1.09
- relative viability (NCI-H522; first compound 0.01581 µM): 0.872
- relative viability (NCI-H522; first compound 0.05 µM): 0.824
- relative viability (NCI-H522; first compound 0.1581 µM): 0.767
- relative viability (NCI-H522; first compound 0.5 µM): 0.595
- relative viability (NCI-H661; first compound 0.005 µM): 0.429
- relative viability (NCI-H661; first compound 0.01581 µM): 0.393
- relative viability (NCI-H661; first compound 0.05 µM): 0.377
- relative viability (NCI-H661; first compound 0.1581 µM): 0.353
- relative viability (NCI-H661; first compound 0.5 µM): 0.251
- relative viability (NCI-H727; first compound 0.005 µM): 0.613
- relative viability (NCI-H727; first compound 0.01581 µM): 0.556
- relative viability (NCI-H727; first compound 0.05 µM): 0.599
- relative viability (NCI-H727; first compound 0.1581 µM): 0.554
- relative viability (NCI-H727; first compound 0.5 µM): 0.505
- relative viability (PC-14; first compound 0.005 µM): 0.432
- relative viability (PC-14; first compound 0.01581 µM): 0.366
- relative viability (PC-14; first compound 0.05 µM): 0.365
- relative viability (PC-14; first compound 0.1581 µM): 0.0885
- relative viability (PC-14; first compound 0.5 µM): 0.0651
- relative viability (RERF-LC-KJ; first compound 0.005 µM): 0.858
- relative viability (RERF-LC-KJ; first compound 0.01581 µM): 0.882
- relative viability (RERF-LC-KJ; first compound 0.05 µM): 0.819
- relative viability (RERF-LC-KJ; first compound 0.1581 µM): 0.517
- relative viability (RERF-LC-KJ; first compound 0.5 µM): 0.41
- relative viability (SK-MES-1; first compound 0.005 µM): 0.297
- relative viability (SK-MES-1; first compound 0.01581 µM): 0.265
- relative viability (SK-MES-1; first compound 0.05 µM): 0.253
- relative viability (SK-MES-1; first compound 0.1581 µM): 0.246
- relative viability (SK-MES-1; first compound 0.5 µM): 0.223
- relative viability (SW 900; first compound 0.005 µM): 0.536
- relative viability (SW 900; first compound 0.01581 µM): 0.515
- relative viability (SW 900; first compound 0.05 µM): 0.451
- relative viability (SW 900; first compound 0.1581 µM): 0.362
- relative viability (SW 900; first compound 0.5 µM): 0.292
